This note sets out measurements from PubChem BioAssay (NCI).

Among the test systems are UACC-62 melanoma; HS 578T breast; UO-31 renal; SF-268 CNS; HCT-116 colon; M14 melanoma; COLO 205 colon; SR leukemia; OVCAR-5 ovarian; DU-145 prostate; SF-539 CNS; 786-0 renal; MOLT-4 leukemia; UACC-257 melanoma; NCI-H460 lung; MDA-N.
What all share (experiment): NCI-60 cell line screen, 48 h

Molecules are shown by their SMILES. Values joined by “and” are separate entries in the source; they are usually repeats but may differ in a detail not shown here. Equal entries are not always repeated.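 Five concentrations, 48 hours, 96-well plates. GI50 is the concentration that inhibits growth by half. TGI denotes the concentration required for complete inhibition of growth.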

Take `c1ccc(-c2sc(-c3ccccc3)c3c2C2CCC3C2)cc1`: the TGI is over 100 µM in the test on UACC-62 melanoma; 70.6 µM in the test on HS 578T breast; 58.3 µM with UO-31 renal; over 100 µM in the test on SF-268 CNS; over 100 µM in the test with HCT-116 colon; over 100 µM in the test on M14 melanoma. The TGI with COLO 205 colon was 38.1 µM; in the test on SR leukemia it was 56.8 µM; in the test with OVCAR-5 ovarian, over 100 µM; in the test with DU-145 prostate it was over 100 µM; in the test with SF-539 CNS it was 67.7 µM; in the test with 786-0 renal, over 100 µM. Also, the TGI with MOLT-4 leukemia was over 100 µM; with UACC-257 melanoma, over 100 µM; with NCI-H460 lung, 88.2 µM; with MDA-N, over 100 µM.
`CC(=O)O[C@@H]1[C@@H](C)[C@]2(CC(c3ccoc3)OC2O)C2CCC3O[C@]3(C)[C@]2(C)[C@@H]1OC(C)=O` (some centres undefined): the TGI in the test on UACC-62 melanoma, in the test on HS 578T breast, with UO-31 renal, in the test with SF-268 CNS, in the test with HCT-116 colon and in the test on M14 melanoma was over 100 µM each time. In addition, the TGI is 40 µM with COLO 205 colon; 58 µM in the test on SR leukemia; over 100 µM with OVCAR-5 ovarian; over 100 µM with DU-145 prostate; 65.3 µM in the test with SF-539 CNS; 39.9 µM in the test with 786-0 renal. Moreover, the TGI was 64.9 µM in the test with MOLT-4 leukemia, over 100 µM in the test with UACC-257 melanoma, over 100 µM with NCI-H460 lung and over 100 µM with MDA-N.
`O=CNNC(=O)CSc1nc2ccc(I)cc2c(=O)n1Cc1ccccc1`: the TGI in the test with UACC-62 melanoma was 47.6 µM; with HS 578T breast, 87.8 µM; in the test on UO-31 renal it was 3.93 µM; with SF-268 CNS, over 100 µM; with HCT-116 colon, 49.5 µM; in the test with M14 melanoma it was over 100 µM. Further, the TGI in the test with COLO 205 colon was 36.4 µM; in the test on SR leukemia it was over 100 µM; in the test with OVCAR-5 ovarian, over 100 µM; in the test on DU-145 prostate, over 100 µM; with SF-539 CNS, over 100 µM; with 786-0 renal, over 100 µM. Also, the TGI in the test on MOLT-4 leukemia was over 100 µM; in the test with UACC-257 melanoma, 68.3 µM; in the test on NCI-H460 lung it was 50.9 µM; in the test on MDA-N it was over 100 µM.
With `O=CN(O)CC(=O)O.[Ni]`, the TGI with UACC-62 melanoma, in the test with HS 578T breast, in the test on UO-31 renal, in the test on SF-268 CNS, in the test on HCT-116 colon and with M14 melanoma was over 100 µM in each case. Further, the TGI in the test with COLO 205 colon, with SR leukemia, in the test with OVCAR-5 ovarian, with DU-145 prostate, in the test with SF-539 CNS and in the test with 786-0 renal was over 100 µM in each case. Further, the TGI in the test with MOLT-4 leukemia, in the test on UACC-257 melanoma, in the test on NCI-H460 lung and in the test with MDA-N was over 100 µM in each case.
In the case of `COc1cc(CC(C)N[C@@H](C)c2ccccc2)cc(OC)c1` (some centres undefined), the TGI in the test with UACC-62 melanoma is 19.8 µM and > 100 µM; with HS 578T breast, over 100 µM; with UO-31 renal, 13.9 µM and > 100 µM; in the test with SF-268 CNS, 25.8 µM and > 100 µM; in the test on HCT-116 colon, 26 µM and > 100 µM; in the test with M14 melanoma, 21.9 µM and > 100 µM. For the same compound, the TGI in the test on SR leukemia is 15.2 µM and > 100 µM; with OVCAR-5 ovarian it was 26 µM and > 100 µM; in the test with DU-145 prostate, 25.2 µM and > 100 µM; with SF-539 CNS it was over 100 µM; in the test with 786-0 renal, 17.3 µM and > 100 µM; in the test on MOLT-4 leukemia it was 17.4 µM and > 100 µM. The TGI in the test on UACC-257 melanoma was 19.5 µM and > 100 µM; in the test with NCI-H460 lung, 12.1 µM and > 100 µM; with MDA-N, 16.3 µM and > 100 µM. The GI50 in the test with SF-268 CNS was 12.3 µM and > 100 µM; with OVCAR-5 ovarian, 12.9 µM and > 100 µM; with DU-145 prostate, 12.6 µM and > 100 µM.
Consider `CCn1c(SCC(=O)NNC(=S)Nc2ccc(Cl)cc2)nc2ccccc2c1=O`, for which the TGI in the test on UACC-62 melanoma, with HS 578T breast, in the test with UO-31 renal, in the test on SF-268 CNS, in the test on HCT-116 colon and in the test with M14 melanoma was over 100 µM in each case. Moreover, the TGI in the test on COLO 205 colon, with SR leukemia, in the test with OVCAR-5 ovarian, in the test with DU-145 prostate, with SF-539 CNS and in the test on 786-0 renal was over 100 µM in each case. The TGI in the test on MOLT-4 leukemia, in the test with UACC-257 melanoma, in the test with NCI-H460 lung and in the test on MDA-N was over 100 µM throughout.
`CN(C)C=NCc1ccc2c(c1)OCO2`: the TGI with UACC-62 melanoma, in the test with HS 578T breast, in the test with UO-31 renal, in the test with SF-268 CNS, in the test with HCT-116 colon and in the test with M14 melanoma was over 100 µM throughout. For the same compound, the TGI in the test on COLO 205 colon, with SR leukemia, in the test with OVCAR-5 ovarian, with DU-145 prostate, in the test with SF-539 CNS and with 786-0 renal was over 100 µM throughout. Also, the TGI with MOLT-4 leukemia, in the test on UACC-257 melanoma, with NCI-H460 lung and in the test on MDA-N was over 100 µM each time.
As to `Cc1ccc(O)c(-c2cc(-c3ccccc3)nc(/N=C\c3ccccc3)n2)c1`, the TGI is 48.6 µM with UACC-62 melanoma; 79.8 µM with HS 578T breast; 13.5 µM in the test with UO-31 renal; over 100 µM with SF-268 CNS; over 100 µM in the test on HCT-116 colon; over 100 µM with M14 melanoma. Further, the TGI in the test with SR leukemia, in the test with OVCAR-5 ovarian, in the test on DU-145 prostate, in the test on SF-539 CNS, in the test with 786-0 renal and with MOLT-4 leukemia was over 100 µM throughout. The TGI in the test on UACC-257 melanoma, in the test with NCI-H460 lung and in the test with MDA-N was over 100 µM each time.
